The first test deals with T1, ER (Homo sapiens, UniProt P03372).
T1 construct: host or cells: T47D and MCF7 human breast cancer cells
T1 sequence (P03372 1-595): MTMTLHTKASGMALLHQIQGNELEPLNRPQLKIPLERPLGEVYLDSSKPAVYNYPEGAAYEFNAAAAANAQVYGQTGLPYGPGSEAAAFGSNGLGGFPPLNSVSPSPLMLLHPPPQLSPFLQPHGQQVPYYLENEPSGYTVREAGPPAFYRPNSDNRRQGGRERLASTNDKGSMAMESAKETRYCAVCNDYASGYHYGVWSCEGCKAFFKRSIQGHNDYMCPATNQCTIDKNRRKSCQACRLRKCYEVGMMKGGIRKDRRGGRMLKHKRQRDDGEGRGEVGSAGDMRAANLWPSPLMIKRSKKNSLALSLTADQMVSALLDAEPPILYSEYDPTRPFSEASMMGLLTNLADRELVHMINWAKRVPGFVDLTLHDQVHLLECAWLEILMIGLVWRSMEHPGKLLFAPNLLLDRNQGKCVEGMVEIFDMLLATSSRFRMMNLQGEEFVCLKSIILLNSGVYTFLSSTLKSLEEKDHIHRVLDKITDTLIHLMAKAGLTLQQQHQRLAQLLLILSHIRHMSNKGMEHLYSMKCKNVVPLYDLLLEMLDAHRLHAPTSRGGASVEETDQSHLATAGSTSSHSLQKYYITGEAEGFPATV
In words: ER degradation activity, in-cell western blot analysis in T47D cells. It counts as cell-based. Particulars: 16 hours, Table A does not say which cell line (T47D or MCF7), read-out: Potency (DC50). The procedure, abridged: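 T47D cells grown in DMEM with 10% FBS were treated with compounds for 16 hours at 0.5% DMSO final. ER was detected by in-cell western using 680/800 near-infrared secondary antibodies. Residual ER is given as percent of untreated and DMSO-treated wells set to 100%.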
For `C[C@@H]1Cc2c([nH]c3ccccc23)[C@@H](c2c(F)cc(N3CCC(CN4Cc5cc6c(cc5C4)C(=O)N(C4CCC(=O)NC4=O)C6)CC3)cc2F)N1CC(F)F` (stereo partly drawn) [E 147, 3-(6-((1-(4-((1R,3R)-2-(2,2-difluoroethyl)-3-methyl-2,3,4,9-tetrahydro-1H-pyrido[3,4-b]indol-1-yl)-3,5-difluorophenyl)piperidin-4-yl)methyl)-1-oxo-3,5,6,7-tetrahydropyrrolo[3,4-f]isoindol-2(1H)-yl)piperidine-2,6-dione], the DC50 (in general, the concentration at which degradation of the target reaches its halfway point) is over 0.1 µM.
On the same count and under the same terms, in the case of `C[C@@H]1Cc2cc(O)ccc2[C@@H](c2c(F)cc(N3CC4(CCN(C(=O)CN5Cc6cc7c(cc6C5)C(=O)N(C5CCC(=O)NC5=O)C7=O)CC4)C3)cc2F)N1CC(F)F` (stereo partly drawn) [E 45, 6-(2-(2-(4-((1S,3R)-2-(2,2-difluoroethyl)-6-hydroxy-3-methyl-1,2,3,4-tetrahydroisoquinolin-1-yl)-3,5-difluorophenyl)-2,7-diazaspiro[3.5]nonan-7-yl)-2-oxoethyl)-2-(2,6-dioxopiperidin-3-yl)-6,7-dihydropyrrolo[3,4-f]isoindole-1,3(2H,5H)-dione] it was under 0.01 µM.
The same measure, in the same setting: in the case of `O=C1CCC(N2C(=O)c3cc4c(cc3C2=O)CN(CCN2CCC3(CC2)CN(c2ccc([C@@H]5c6ccc(O)cc6CC[C@@H]5c5ccccc5)cc2)C3)C4)C(=O)N1` (mixture of isomers) [E 266, rac-2-(2,6-dioxopiperidin-3-yl)-6-(2-(2-(4-((1R,2S)-6-hydroxy-2-phenyl-1,2,3,4-tetrahydronaphthalen-1-yl)phenyl)-2,7-diazaspiro[3.5]nonan-7-yl)ethyl)-6,7-dihydropyrrolo[3,4-f]isoindole-1,3(2H,5H)-dione] it was 0.01 to 0.1 µM; in that of `C[C@@H]1Cc2c([nH]c3ccccc23)[C@@H](c2c(F)cc(N3CC4(CCN(C(=O)CN5Cc6cc7c(cc6C5)C(=O)N(C5CCC(=O)NC5=O)C7=O)C4)C3)cc2F)N1CC(F)F` (stereo partly drawn) [E 77, 6-(2-(2-(4-((1R,3R)-2-(2,2-difluoroethyl)-3-methyl-2,3,4,9-tetrahydro-1H-pyrido[3,4-b]indol-1-yl)-3,5-difluorophenyl)-2,6-diazaspiro[3.4]octan-6-yl)-2-oxoethyl)-2-(2,6-dioxopiperidin-3-yl)-6,7-dihydropyrrolo[3,4-f]isoindole-1,3(2H,5H)-dione], under 0.01 µM; in that of `O=C1CCC(N2C(=O)c3cc4c(cc3C2=O)CN(C(=O)CN2CCC3(CC2)CCN(c2ccc(C(=C(CCCl)c5ccccc5)c5ccc(O)cc5)cc2)C3)C4)C(=O)N1` (stereo not shown) [E 191, 6-(2-(2-(4-(4-chloro-1-(4-hydroxyphenyl)-2-phenylbut-1-en-1-yl)phenyl)-2,8-diazaspiro[4.5]decan-8-yl)acetyl)-2-(2,6-dioxopiperidin-3-yl)-6,7-dihydropyrrolo[3,4-f]isoindole-1,3(2H,5H)-dione], 0.01 to 0.1 µM.
For `O=C1CCC(N2C(=O)c3cc4c(cc3C2=O)CN(C(=O)[C@H]2CC[C@H](CN3CC(Oc5ccc([C@@H]6c7ccc(O)cc7CC[C@@H]6c6ccccc6)cc5)C3)CC2)C4)C(=O)N1` (stereo partly drawn) [E 310, 2-(2,6-dioxopiperidin-3-yl)-6-((1R,4r)-4-((3-(4-((1R,2S)-6-hydroxy-2-phenyl-1,2,3,4-tetrahydronaphthalen-1-yl)phenoxy)azetidin-1-yl)methyl)cyclohexane-1-carbonyl)-6,7-dihydropyrrolo[3,4-f]isoindole-1,3(2H,5H)-dione], the DC50 was over 0.1 µM.
Still for that read-out and setting: in the case of `C[C@@H]1Cc2c([nH]c3ccccc23)[C@@H](c2c(F)cc(N3CCCC(CN4CCC(C(=O)N5Cc6cc7c(cc6C5)C(=O)N(C5CCC(=O)NC5=O)C7=O)CC4)C3)cc2F)N1CC(F)F` (stereo partly drawn) [E 58, 6-(1-((1-(4-((1R,3R)-2-(2,2-difluoroethyl)-3-methyl-2,3,4,9-tetrahydro-1H-pyrido[3,4-b]indol-1-yl)-3,5-difluorophenyl)piperidin-3-yl)methyl)piperidine-4-carbonyl)-2-(2,6-dioxopiperidin-3-yl)-6,7-dihydropyrrolo[3,4-f]isoindole-1,3(2H,5H)-dione] it was 0.01 to 0.1 µM; in that of `O=C1CCC(N2C(=O)c3cc4c(cc3C2=O)CN(CC(=O)N2CCC3(CC2)CCN(c2ccc([C@@H]5c6ccc(O)cc6CC[C@@H]5c5ccccc5)nn2)CC3)C4)C(=O)N1` (mixture of isomers) [E 306, Rac-2-(2,6-dioxopiperidin-3-yl)-6-(2-(9-(6-((1S,2S)-6-hydroxy-2-phenyl-1,2,3,4-tetrahydronaphthalen-1-yl)pyridazin-3-yl)-3,9-diazaspiro[5.5]undecan-3-yl)-2-oxoethyl)-6,7-dihydropyrrolo[3,4-f]isoindole-1,3(2H,5H)-dione], over 0.1 µM; in that of `O=C1CCC(N2C(=O)c3cc4c(cc3C2=O)CN(C(=O)CN2CCC3(CC2)CC(Oc2ccc([C@@H]5c6ccc(O)cc6CC[C@@H]5c5ccccc5)cc2)C3)C4)C(=O)N1` (stereo partly drawn) [E 222, 2-(2,6-dioxopiperidin-3-yl)-6-(2-(2-(4-((1R,2S)-6-hydroxy-2-phenyl-1,2,3,4-tetrahydronaphthalen-1-yl)phenoxy)-7-azaspiro[3.5]nonan-7-yl)acetyl)-6,7-dihydropyrrolo[3,4-f]isoindole-1,3(2H,5H)-dione], over 0.1 µM.
On to `O=C1CCC(N2C(=O)c3cc4c(cc3C2=O)CN(CC(=O)N2CCC3(CC2)CCN(c2ccc([C@@H]5c6ccc(O)cc6CC[C@@H]5c5ccccc5)cc2)CC3)CC4)C(=O)N1` (mixture of isomers) [E 172, rac-2-(2,6-dioxopiperidin-3-yl)-6-(2-(9-(4-((1R,2S)-6-hydroxy-2-phenyl-1,2,3,4-tetrahydronaphthalen-1-yl)phenyl)-3,9-diazaspiro[5.5]undecan-3-yl)-2-oxoethyl)-5,6,7,8-tetrahydro-1H-pyrrolo[3,4-g]isoquinoline-1,3(2H)-dione], for which the DC50 was in the range of 0.01 to 0.1 µM.
`O=C1CCC(N2C(=O)c3cc4c(cc3C2=O)CN(CC(=O)N2CCC3(CC2)CCN(c2ccc(C(=C(CCCl)c5ccccc5)c5ccc(O)cc5)cc2)CC3)C4)C(=O)N1` (stereo not shown) [E 182, 6-(2-(9-(4-(4-chloro-1-(4-hydroxyphenyl)-2-phenylbut-1-en-1-yl)phenyl)-3,9-diazaspiro[5.5]undecan-3-yl)-2-oxoethyl)-2-(2,6-dioxopiperidin-3-yl)-6,7-dihydropyrrolo[3,4-f]isoindole-1,3(2H,5H)-dione]: the DC50 is under 0.01 µM.
Still for that read-out and setting: in the case of `C[C@@H]1Cc2c([nH]c3ccccc23)[C@@H](c2c(F)cc(N3CCC(CN4Cc5cc6c(cc5C4)C(=O)N(C4CCC(=O)NC4=O)C6=O)CC3)cc2F)N1CC(F)F` (stereo partly drawn) [E 89, 6-((1-(4-((1R,3R)-2-(2,2-difluoroethyl)-3-methyl-2,3,4,9-tetrahydro-1H-pyrido[3,4-b]indol-1-yl)-3,5-difluorophenyl)piperidin-4-yl)methyl)-2-(2,6-dioxopiperidin-3-yl)-6,7-dihydropyrrolo[3,4-f]isoindole-1,3(2H,5H)-dione] it was over 0.1 µM.
The same measure, in the same setting: in the case of `C[C@@H]1Cc2c([nH]c3ccccc23)[C@@H](c2ccc(N3CCC(CN4CCC(N5Cc6cc7c(cc6C5)C(=O)N(C5CCC(=O)NC5=O)C7=O)CC4)CC3)cc2)N1CC(F)F` (stereo partly drawn) [E 264, 6-(1-((1-(4-((1R,3R)-2-(2,2-difluoroethyl)-3-methyl-2,3,4,9-tetrahydro-1H-pyrido[3,4-b]indol-1-yl)phenyl)piperidin-4-yl)methyl)piperidin-4-yl)-2-(2,6-dioxopiperidin-3-yl)-6,7-dihydropyrrolo[3,4-f]isoindole-1,3(2H,5H)-dione] it was 0.01 to 0.1 µM; in that of `CN(C1CCN(c2ccc([C@@H]3c4ccc(O)cc4CC[C@@H]3c3ccccc3)cc2)CC1)N1CCC(CN2Cc3cc4c(cc3C2)C(=O)N(C2CCC(=O)NC2=O)C4)CC1` (mixture of isomers) [E 300, 3-(6-((1-((1-(4-((1R,2S)-6-hydroxy-2-phenyl-1,2,3,4-tetrahydronaphthalen-1-yl)phenyl)piperidin-4-yl)(methyl)amino)piperidin-4-yl)methyl)-1-oxo-3,5,6,7-tetrahydropyrrolo[3,4-f]isoindol-2(1H)-yl)piperidine-2,6-dione], over 0.1 µM.

The same test, now with this note: compounds 16 hours, Table A does not say whether T47D or MCF7, read-out: Potency (DC50).
In the case of `COc1cc([C@H]2CC[C@H](C(=O)N3CCC(N4Cc5cc6c(cc5C4)C(=O)N(C4CCC(=O)NC4=O)C6=O)CC3)CC2)ncc1[C@@H]1c2[nH]c3ccccc3c2C[C@@H](C)N1CC(F)F` (stereo partly drawn) [E 397, 6-(1-((1R,4r)-4-(5-((1R,3R)-2-(2,2-difluoroethyl)-3-methyl-2,3,4,9-tetrahydro-1H-pyrido[3,4-b]indol-1-yl)-4-methoxypyridin-2-yl)cyclohexane-1-carbonyl)piperidin-4-yl)-2-(2,6-dioxopiperidin-3-yl)-6,7-dihydropyrrolo[3,4-f]isoindole-1,3(2H,5H)-dione], the DC50 is over 0.1 µM.
Regarding `O=C1CCC(N2C(=O)c3cc4c(cc3C2=O)CN(CC2COC3(CCN(c5ccc([C@@H]6c7ccc(O)cc7CC[C@@H]6c6ccccc6)cc5)CC3)C2)C4)C(=O)N1` (stereo partly drawn) [E 515, 2-(2,6-dioxopiperidin-3-yl)-6-((8-(4-((1R,2S)-6-hydroxy-2-phenyl-1,2,3,4-tetrahydronaphthalen-1-yl)phenyl)-1-oxa-8-azaspiro[4.5]decan-3-yl)methyl)-6,7-dihydropyrrolo[3,4-f]isoindole-1,3(2H,5H)-dione], the DC50 lay in the range of 0.01 to 0.1 µM.

The values are drawn from patent US20240190880A1 (THE REGENTS OF THE UNIVERSITY OF MICHIGAN, priority 2021, published 2024).
